# Results taken from patent publication US20110028509A1, “Sulfonamides” (MERCK SERONO SA, priority 2008, published 2011).
# Tests used:
# Format in all cases: cell-based
# CXCR3 [1] = biological target: T1, CXCR3 (Homo sapiens, UniProt P49682); test: Chemotaxis assay IP10, L1.2 recombinant cells expressing hCXCR3; conditions: L1.2 hCXCR3 cells, IP10 around 0.3 nM, 4 hours
# T1 sequence (P49682 1-368): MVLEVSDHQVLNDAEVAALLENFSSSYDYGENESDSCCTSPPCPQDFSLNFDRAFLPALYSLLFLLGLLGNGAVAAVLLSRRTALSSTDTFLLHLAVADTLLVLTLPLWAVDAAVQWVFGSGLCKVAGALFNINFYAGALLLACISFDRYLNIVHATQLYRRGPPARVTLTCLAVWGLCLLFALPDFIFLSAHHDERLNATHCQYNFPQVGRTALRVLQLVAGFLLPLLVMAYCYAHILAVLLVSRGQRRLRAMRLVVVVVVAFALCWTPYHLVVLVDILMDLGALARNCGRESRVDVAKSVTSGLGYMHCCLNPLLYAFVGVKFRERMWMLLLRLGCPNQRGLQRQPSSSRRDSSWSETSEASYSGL
# Experimental: Human CXCR3 cDNA was amplified by PCR from a human cells cDNA library (Clontech) and subcloned into pcDNA3.1 (Invitrogen). Murine pre-B L1.2 cells were transfected with hCXCR3-pcDNA3.1 and were grown at 37° C., 5% CO2 in RPMI 1640 medium (Invitrogen, USA) supplemented with 5% heat inactivated fetal calf serum (Cancerra, Australia), 2 mM glutamine (Invitrogen), 50 units ml−1 penicillin, 50 μml−1 streptomycin. Stable transfectant clonal populations were selected using 800 μg/ml geneticin.
# L1.2 recombinant cells expressing the receptor hCXCR3 were maintained in culture in RPMI 1640 (invitrogen), 5% Foetal Bovine Serum (invitrogen), 2 mM glutamine(invitrogen), 50 u/ml penicillin/streptomycin (invitrogen), at 37° C.-5% CO2—in an H2O saturated incubator. In order to stimulate the expression of the receptor, cells were incubated overnight with 5 mM butyric acid (Sigma)
# This mix of cells/compounds was then incubated at 37° C.-5% CO2—in an H2O saturated incubator during 30 minutes. Cells were then dispensed as a drop on each corresponding wells of the chemotaxis system. Cell migration was then induced at 37° C.-5% CO2—in an H2O incubator during 4 hours. Filters were then removed and cells that had migrated were transferred in a black plate (Costar). The plates were stored overnight at −80° C. Cell migration ratio was calculated using the cyquant dye (Molecular Probes-C7026).
# CXCR3 [2] = biological target: T1, CXCR3; test: CXCR3 Ca2+ mobilization (FLIPR), stable hCXCR3-CHO cell line, I-TAC stimulated; parameters: host or cells: CHO cells stably expressing hCXCR3; conditions: hCXCR3-CHO cells, I-TAC 100 nM stimulated Ca2+ response; read-out: Ca-ITAC
# How it was run: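 Ca2+ mobilization triggered by I-TAC (100 nM) measured by FLIPR in a stable hCXCR3-CHO line. Dye-loaded (60 min) cells preincubated with compounds 20 minutes at room temperature; antagonism given relative to the compound-free I-TAC signal set at 100%.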
# CXCR3 [3] = biological target: T1, CXCR3; test: Chemotaxis assay ITAC (CXCL11), L1.2-CXCR3 cells; parameters: expressed in transfected cells; conditions: 1 nM CXCL11 (I-TAC), 4 hours
# How it was run: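 Murine pre-B L1.2 cells stably expressing human CXCR3, pretreated 24 h with 5 mM butyric acid, preincubated with compound 30 min at 37 °C in 1% DMSO. Migration toward 1 nM CXCL11 (also with compound) through 8 μm filters for 4 h at 37 °C; migrated cells counted with CyQuant GR dye.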
Structure (SMILES),IC50 (CXCR3 [1]) [µM],IC50 (CXCR3 [2]) [nM],IC50 (CXCR3 [3]) [nM]
"COCCCS(=O)(=O)NC(=O)c1ccc(CN(Cc2ccccn2)S(=O)(=O)c2ccc(Cl)cc2)cc1 [Example 54, N-(3-methoxy-propane-1-sulfonyl)-4-{[[(4-chlorophenyl)sulfonyl](pyridin-2-yl-methyl)amino]methyl}benzamide]",3.83,5600,–
"O=S(=O)(c1ccc(Cl)cc1)N(Cc1ccc(-c2nnn[nH]2)c(F)c1)Cc1ccccn1 [Example 56, 4-chloro-N-[3-fluoro-4-(1H-tetrazol-5-yl)benzyl]-N-(pyridin-2 ylmethyl)benzene sulfonamide]",1.16,5300,–
"O=S(=O)(c1ccc(Cl)cc1)N(Cc1ccccn1)Cc1ccc(-c2nnn[nH]2)cc1F [Example 57, 4-chloro-N-[2-fluoro-4-(1H-tetrazol-5-yl)benzyl]-N-(pyridin-2 ylmethyl)benzene sulfonamide]",0.44,5000,1780
"O=S(=O)(c1ccc(Cl)cc1)N(Cc1ccc(-c2nnn[nH]2)cc1)Cc1ccc(F)cc1F [Example 60, 4-chloro-N-(2,4-difluorobenzyl)-N-[4-(2H-tetrazol-5-yl)benzyl]benzenesulfonamide]",0.681,1450,–
"O=S(=O)(c1ccc(Cl)cc1)N(Cc1ccc(-c2nnn[nH]2)cc1)Cc1c(F)cccc1F [Example 62, 4-chloro-N-(2,6-difluorobenzyl)-N-[4-(2H-tetrazol-5-yl)benzyl]benzene sulfonamide]",0.183,44,212
"O=S(=O)(c1ccc(Cl)cc1)N(Cc1ccc(-c2nnn[nH]2)cc1)Cc1ccccc1Cl [Example 63, 4-chloro-N-(2-chlorobenzyl)-N-[4-(2H-tetrazol-5-yl)benzyl]benzenesulfonamide]",0.548,415,–
"O=C(O)c1ccc(CN(Cc2ccccn2)S(=O)(=O)c2ccc(Cl)cc2)cc1F [Example 64, 4-{[(4-Chloro-benzenesulfonyl)-pyridin-2-ylmethyl-amino]-methyl}-2-fluoro-benzoic acid]",1.13,3040,3150
"O=C(O)c1ccc(CN(Cc2ccccc2F)S(=O)(=O)c2ccc(Cl)cc2)cc1F [Example 65, 4-{[(4-Chloro-benzenesulfonyl)-(2-fluoro-benzyl)-amino]-methyl}-2-fluorobenzoic acid]",0.513,1010,2300
"CC(C)(C)c1nc(CN(Cc2ccc(-c3nnn[nH]3)cc2)S(=O)(=O)c2ccc(Cl)cc2)no1 [Example 69, 4-chloro-N-(5-tert-butyl-1,2,4-oxadiazol-3-ylmethyl)-N-[4-(2H-tetrazol-5yl)benzyl]benzene sulfonamide]",0.254,56,560
"O=S(=O)(c1ccc(Cl)cc1)N(Cc1ccc(-c2nnn[nH]2)cc1)Cc1cc2ccccc2cn1 [Example 76, 4-chloro-N-(isoquinolin-3-ylmethyl)-N-[4-(2H-tetrazol-5yl)benzyl]benzene sulfonamide]",0.911,300,–
O=S(=O)(c1ccc(Cl)cc1F)N(Cc1ccc(-c2nnn[nH]2)cc1)Cc1ccccn1 [Example 77],0.409,500,409
CCOc1ccc(S(=O)(=O)N(Cc2ccc(-c3nnn[nH]3)c(F)c2)Cc2ccccn2)cc1 [Example 80],0.158,55,909
"N#Cc1ccc(S(=O)(=O)N(Cc2ccc(-c3nnn[nH]3)c(F)c2)Cc2ccccc2F)cc1 [Example 81, 4-cyano-N-(2-fluorobenzyl)-N-[3-fluoro-4-(2H-tetrazol-5-yl)benzyl]benzene sulfonamide]",0.193,79,565
"N#Cc1ccc(S(=O)(=O)N(Cc2ccc(-c3nnn[nH]3)cc2)Cc2ccccc2F)cc1 [Example 83, 4-cyano-N-(2-fluorobenzyl)-N-[4-(2H-tetrazol-5-yl)benzyl]benzenesulfonamide]",0.236,10,1040
CCOc1ccc(S(=O)(=O)N(Cc2ccc(C(=O)NCC(O)c3ccccc3)cc2)Cc2ccccn2)cc1 (stereo not shown) [Example 84],0.01,20,20
CCOc1ccc(S(=O)(=O)N(Cc2ccc(C(=O)NC3(c4ccccc4)CC3)cc2)Cc2ccccn2)cc1 [Example 88],0.01,10,30
"CCOc1ccc(S(=O)(=O)N(Cc2ccc(C(=O)N[C@H]3[C@@H]4CN(C(=O)OC(C)(C)C)C[C@@H]43)cc2)Cc2ccccn2)cc1 [Example 89, rac-6-(4-{[(4-Ethoxy-benzenesulfonyl)-pyridin-2-ylmethyl-amino]-methyl}-benzoylamino)-3-aza-bicyclo[3.1.0]hexane-3-carboxylic acid tert-butyl ester]",0.01,50,–
CCOc1ccc(S(=O)(=O)N(Cc2ccc(C(=O)NC3(c4ccccc4)CC3)cc2)Cc2cccnc2)cc1 [Example 93],0.04,30,–
CC(C)(C)OC(=O)N1C[C@@H]2[C@H](C1)[C@H]2NC(=O)c1ccc(CN(Cc2ccccn2)S(=O)(=O)c2ccc(C#N)cc2)cc1 [Example 96],0.01,10,–
N#Cc1ccc(S(=O)(=O)N(Cc2ccc(C(=O)NCCc3cccc(Cl)c3)cc2)Cc2ccccn2)cc1 [Example 97],0.05,70,–
CC(CNC(=O)c1ccc(CN(Cc2ccccn2)S(=O)(=O)c2ccc(C#N)cc2)cc1)c1ccccc1 (stereo not shown) [Example 98],0.16,400,–
N#Cc1ccc(S(=O)(=O)N(Cc2ccc(C(=O)NC3(c4cccc(C#N)c4)CC3)cc2)Cc2ccccn2)cc1 [Example 101],0.19,60,–
N#Cc1ccc(S(=O)(=O)N(Cc2ccc(C(=O)NCC(O)c3ccccc3)cc2)Cc2ccccn2)cc1 (stereo not shown) [Example 102],0.01,20,20
CCOc1ccc(S(=O)(=O)N(Cc2ccc(C(=O)O)cc2)Cc2cccnc2)cc1 [Example 157],4.18,1620,–
O=C(Cc1cccc(Cl)c1)Nc1ccc(CN(Cc2ccccn2)S(=O)(=O)c2ccc(Cl)cc2)cc1 [Example 160],0.12,100,–
N#Cc1ccc(S(=O)(=O)N(Cc2ccc(NC(=O)Cc3cccc(Cl)c3)cc2)Cc2ccccn2)cc1 [Example 161],0.06,20,–
"O=C(Nc1ccc(CN(Cc2ccccn2)S(=O)(=O)c2ccc(Cl)cc2)cc1)C1(c2ccccc2)CC1 [Example 162, 1-Phenyl-cyclopropanecarboxylic acid (4-{[(4-chloro-benzenesulfonyl)-pyridin-2-ylmethyl-amino]-methyl}-phenyl)-amide]",0.07,170,170
N#Cc1ccc(S(=O)(=O)N(Cc2ccc(NC(=O)C3(c4ccccc4)CC3)cc2)Cc2ccccn2)cc1 [Example 163],0.02,20,120
